From patent US8354225B1, “Amplification of oligonucleotides containing non-standard nucleobases” (priority 2004, dated 2013)

Experiments:
[1] = cited from earlier work
[2] = system: d(puADA) in the template (T3); assay: Paused-extension screen of polymerases; assay type: biochemical; settings: template T3, primer P3, dNTPs, 72° C., 15 seconds
Method: FIG. 6. Use of Taq and DeepVent (DV) exo^+ polymerases as sequencing tools. Both polymerases were incubated with template T3, primer P3, and dNTPs.P=primer alone, 19 nts in length. […] Deep Vent exo appears to be degrading the primer, and perhaps the product as well.
Radiolabeled primer P3 (1 pmol) was mixed with template T3 (2 pmol), Thermopol buffer (1.5 μL, 10×), dATP, dCTP, dTTP, dGTP (final conc. 10 μM each), and water to a final volume of 14 μL. The mixture was heated to 95° C. for 10 min. and allowed to cool to ambient for 1 hour. The respective polymerase (Taq, Vent, Deep Vent, Vent exo^−, or Deep Vent exo−) was added (1 μL, 2 U/μL) and the reaction incubated at 72° C. for 15 seconds. The reaction was quenched with 20 mM EDTA in PAGE loading buffer (15 μL) and subsequently analyzed by electrophoresis on a 20% PAGE gel. The gel was analyzed using the MolecularImager software.

## O=c1[nH]c(=O)c2[nH]cnc2[nH]1 [pu(ADA), xanthine]
[1]; free heterocycle
  pKa of the heterocycle (acid): ca. 5.7

## Nc1ccnc(N)n1 [py(DAD), 2,4-diaminopyrimidine]
[1]; protonated heterocycle
  pKa of the conjugate acid: ≈ 6.7

## Taq polymerase: Taq polymerase used as sequencing tool
[2]
  elongation upon encountering dX / d(puADA) in the template: terminates the elongation of a primer
[2]; listed as Taq
  elongation upon encountering dX / d(puADA) in the template: abort elongation
